pEC50: −log10 of the molar value.
How the values were obtained:
human mAChR M1 [1] = molecular target: T1, human mAChR M1 (Homo sapiens, UniProt P11229); experiment: mAChR M1 cell-based functional assay (calcium mobilization), agonist mode: compound alone, Emax relative to acetylcholine maximum; conditions: for Agonist Activity Human M1 EC50 / pEC50: human mAChR M1; for Emax: relative to the maximum for acetylcholine
T1 sequence (P11229 1-460): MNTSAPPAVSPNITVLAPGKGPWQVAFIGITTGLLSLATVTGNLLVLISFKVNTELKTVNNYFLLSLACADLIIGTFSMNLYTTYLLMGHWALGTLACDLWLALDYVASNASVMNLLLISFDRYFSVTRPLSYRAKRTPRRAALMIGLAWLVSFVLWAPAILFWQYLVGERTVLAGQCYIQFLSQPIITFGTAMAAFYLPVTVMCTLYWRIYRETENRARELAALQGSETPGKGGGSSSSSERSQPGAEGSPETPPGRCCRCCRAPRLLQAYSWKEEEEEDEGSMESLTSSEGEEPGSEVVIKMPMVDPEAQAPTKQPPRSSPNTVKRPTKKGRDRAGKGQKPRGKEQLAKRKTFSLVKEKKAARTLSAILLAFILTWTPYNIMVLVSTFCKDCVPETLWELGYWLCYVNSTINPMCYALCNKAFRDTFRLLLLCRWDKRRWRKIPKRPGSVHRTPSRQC
How it was run: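 CHO-K1 cells stably expressing hM1 were loaded with Fluo-4 AM, and calcium flux was read as fluorescence ratio. Compound was added alone from an 11-point 1:3 curve, and the agonist response was fitted with a four-parameter logistic. Emax is expressed relative to the acetylcholine maximum.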

human mAChR M1 [2] = molecular target: T1, human mAChR M1; experiment: mAChR M1 cell-based functional assay (calcium mobilization), PAM mode: increase in the EC20 acetylcholine response
How it was run: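 CHO-K1 cells stably expressing hM1, Fluo-4 loaded, read by FDSS calcium flux at 1 Hz. Compound (11-point 1:3 CRC) added at 4 s, EC20 acetylcholine at 144 s, EC80 at 230 s. PAM activity taken as concentration-dependent increase in EC20 ACh response, fitted by four-parameter logistic for EC50/Emax.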

Row | SMILES | Agonist Activity Human M1 EC50 (human mAChR M1 [1]) | Emax (human mAChR M1 [1]) | pEC50 (human mAChR M1 [2]) | Emax (human mAChR M1 [2]) | pEC50 (human mAChR M1 [1])
1 | [2H]C1([2H])c2ncccc2C(=O)N1Cc1c(F)cc(-c2ccc(S(C)(=N)=O)c3nn(C)cc23)cc1F (stereo not shown) [Compound 182, 6-(2,6-difluoro-4-(2-methyl-7-(S-methylsulfonimidoyl)-2H-indazol-4-yl)benzyl)-6,7-dihydro-5H-pyrrolo[3,4-b]pyridin-5-one-7,7-d2] | Inactive | 3% | 6.23 | 87% | 
2 | [2H]C1([2H])c2ncccc2C(=O)N1Cc1ccc(-c2ccc(OCCOC3CC3)c3nn(C)cc23)cc1F [Compound 154, 6-(4-(7-(2-cyclopropoxyethoxy)-2-methyl-2H-indazol-4-yl)-2-fluorobenzyl)-6,7-dihydro-5H-pyrrolo[3,4-b]pyridin-5-one-7,7-d2] |  | 17% | 5.96 | 77% | ≤ 5.00
3 | [2H]C1([2H])c2ncccc2C(=O)N1Cc1c(F)cc(-c2cccc3nn(C([2H])([2H])[2H])cc23)cc1N(C)C [Compound 230, 6-(2-(dimethylamino)-6-fluoro-4-(2-(methyl-d3)-2H-indazol-4-yl)benzyl)-6,7-dihydro-5H-pyrrolo[3,4-b]pyridin-5-one-7,7-d2] | Inactive | 3% | ≤ 5.00 | 38% | 
4 | [2H]C1([2H])c2ncccc2C(=O)N1Cc1c(F)cc(-c2cnc(OC)c3nn(C)cc23)cc1F [Compound 121, 6-(2,6-difluoro-4-(7-methoxy-2-methyl-2H-pyrazolo[3,4-c]pyridin-4-yl)benzyl)-6,7-dihydro-5H-pyrrolo[3,4-b]pyridin-5-one-7,7-d2] | Inactive | 3% | 5.53 | 55% | 
5 | [2H]C1([2H])c2ncccc2C(=O)N1Cc1c(F)cc(-c2cccc3nn(C([2H])([2H])[2H])cc23)cc1Cl [Compound 161, 6-(2-chloro-6-fluoro-4-(2-(methyl-d3)-2H-indazol-4-yl)benzyl)-6,7-dihydro-5H-pyrrolo[3,4-b]pyridin-5-one-7,7-d2] | Inactive | 6% | 6.45 | 81% | 
6 | [2H]C1([2H])c2ncccc2C(=O)N1Cc1c(F)cc(-c2cccc3nn(C)cc23)cc1Cl [Compound 166, 6-(2-chloro-6-fluoro-4-(2-methyl-2H-indazol-4-yl)benzyl)-6,7-dihydro-5H-pyrrolo[3,4-b]pyridin-5-one-7,7-d2] | Inactive | 5% | 6.50 | 82% | 
7 | [2H]C1([2H])c2ncccc2C(=O)N1Cc1ccc(-c2ccc3nn(C)cc3c2)cc1C [Compound 33, 6-(2-methyl-4-(2-methyl-2H-indazol-5-yl)benzyl)-6,7-dihydro-5H-pyrrolo[3,4-b]pyridin-5-one-7,7-d2] |  | 2% | 6.41 | 72% | < 5.00
8 | [2H]C1([2H])c2ncccc2C(=O)N1Cc1c(F)cc(-c2ccc(F)c3nn(C)cc23)cc1F [Compound 36, 6-(2,6-difluoro-4-(7-fluoro-2-methyl-2H-indazol-4-yl)benzyl)-6,7-dihydro-5H-pyrrolo[3,4-b]pyridin-5-one-7,7-d2] | Inactive | 5% | 6.32 | 84% | 
9 | [2H]C1([2H])c2ncccc2C(=O)N1Cc1c(F)cc(-c2cccc3c2cnn3CC)cc1F [Compound 65, 6-(4-(1-ethyl-1H-indazol-4-yl)-2,6-difluorobenzyl)-6,7-dihydro-5H-pyrrolo[3,4-b]pyridin-5-one-7,7-d2] |  | 2% | 5.89 | 73% | < 5.00
10 | [2H]C1([2H])c2ncccc2C(=O)N1Cc1c(F)cc(-c2cc(F)c(Cl)c3c2cnn3C([2H])([2H])[2H])cc1F [Compound 249, 6-(4-(7-chloro-6-fluoro-1-(methyl-d3)-1H-indazol-4-yl)-2,6-difluorobenzyl)-6,7-dihydro-5H-pyrrolo[3,4-b]pyridin-5-one-7,7-d2] | Inactive | 14% | < 5.00 | 20% | 
11 | [2H]C1([2H])c2ncccc2C(=O)N1Cc1ccc(-c2cccc3ccnn23)cc1 [Compound 241, 6-(4-(pyrazolo[1,5-a]pyridin-7-yl)benzyl)-6,7-dihydro-5H-pyrrolo[3,4-b]pyridin-5-one-7,7-d2] | Inactive | 3% | < 5.00 | 41% | 
12 | [2H]C1([2H])c2ncccc2C(=O)N1Cc1c(F)cc(-c2ccc(F)c3c2cnn3C([2H])([2H])[2H])cc1F [Compound 68, 6-(2,6-difluoro-4-(7-fluoro-1-(methyl-d3)-1H-indazol-4-yl)benzyl)-6,7-dihydro-5H-pyrrolo[3,4-b]pyridin-5-one-7,7-d2] | Inactive | 2% | < 5.00 | 64% | 
13 | [2H]C1([2H])c2ncccc2C(=O)N1Cc1c(F)cc(-c2ccc3nn(C)cc3c2)cc1F [Compound 8, 6-(2,6-difluoro-4-(2-methyl-2H-indazol-5-yl)benzyl)-6,7-dihydro-5H-pyrrolo[3,4-b]pyridin-5-one-7,7-d^2] | Inactive | 4% | 6.19 | 62% | 
14 | [2H]C1([2H])c2ncccc2C(=O)N1Cc1ccc(-c2ccc3nn(C)cc3c2C)cc1F [Compound 242, 6-(4-(2,4-dimethyl-2H-indazol-5-yl)-2-fluorobenzyl)-6,7-dihydro-5H-pyrrolo[3,4-b]pyridin-5-one-7,7-d2] | Inactive | 3% | < 5.00 | 43% | 
15 | [2H]C1([2H])c2ncccc2C(=O)N1Cc1c(F)cc(-c2cc(Cl)cc3c2cnn3C([2H])([2H])[2H])cc1F [Compound 246, 6-(4-(6-chloro-1-(methyl-d3)-1H-indazol-4-yl)-2,6-difluorobenzyl)-6,7-dihydro-5H-pyrrolo[3,4-b]pyridin-5-one-7,7-d2] | Inactive | 2% | < 5.00 | 25% | 

These reach a higher pEC50 (human mAChR M1 [2]). Values come first.

Row | Agonist Activity Human M1 EC50 (human mAChR M1 [1]) | Emax (human mAChR M1 [1]) | pEC50 (human mAChR M1 [2]) | Emax (human mAChR M1 [2]) | pEC50 (human mAChR M1 [1]) | SMILES
16 | Inactive | 2% | 6.71 | 27% |  | [2H]C1([2H])c2ncccc2C(=O)N1Cc1c(F)cc(-c2cc(F)c(F)c3nn(C)cc23)cc1F [Compound 105, 6-(4-(6,7-difluoro-2-methyl-2H-indazol-4-yl)-2,6-difluorobenzyl)-6,7-dihydro-5H-pyrrolo[3,4-b]pyridin-5-one-7,7-d2]
17 |  | 47% | 6.71 | 77% | 5.10 | [2H]C1([2H])c2ncccc2C(=O)N1Cc1c(F)cc(-c2ccc(O)c3nn(C([2H])([2H])[2H])cc23)cc1F [Compound 132, 6-(2,6-difluoro-4-(7-hydroxy-2-(methyl-d3)-2H-indazol-4-yl)benzyl)-6,7-dihydro-5H-pyrrolo[3,4-b]pyridin-5-one-7,7-d2]
18 |  | 21% | 6.54 | 72% | 5.03 | [2H]C1([2H])c2ncccc2C(=O)N1Cc1ccc(-c2ccc(OCCOC)c3nn(C)cc23)cc1F [Compound 116, 6-(2-fluoro-4-(7-(2-methoxyethoxy)-2-methyl-2H-indazol-4-yl)benzyl)-6,7-dihydro-5H-pyrrolo[3,4-b]pyridin-5-one-7,7-d2]
19 |  | 43% | 6.79 | 77% | 5.10 | [2H]C1([2H])c2ncccc2C(=O)N1Cc1c(F)cc(-c2ccc(OCCOC)c3nn(C([2H])([2H])[2H])cc23)cc1F [Compound 114, 6-(2,6-difluoro-4-(7-(2-methoxyethoxy)-2-(methyl-d3)-2H-indazol-4-yl)benzyl)-6,7-dihydro-5H-pyrrolo[3,4-b]pyridin-5-one-7,7-d2]
20 | Inactive | 9% | 6.95 | 85% |  | [2H]C1([2H])c2ncccc2C(=O)N1Cc1c(F)cc(-c2ccc(OC)c3nn(C)cc23)cc1F [Compound 39, 6-(2,6-difluoro-4-(7-methoxy-2-methyl-2H-indazol-4-yl)benzyl)-6,7-dihydro-5H-pyrrolo[3,4-b]pyridin-5-one-7,7-d2]
21 | Inactive | 2% | 6.65 | 59% |  | [2H]C1([2H])c2ncccc2C(=O)N1Cc1c(F)cc(-c2cc(F)cc3nn(C)cc23)cc1F [Compound 59, 6-(2,6-difluoro-4-(6-fluoro-2-methyl-2H-indazol-4-yl)benzyl)-6,7-dihydro-5H-pyrrolo[3,4-b]pyridin-5-one-7,7-d2]
22 |  | 17% | 6.78 | 73% | 5.26 | [2H]C1([2H])c2ncccc2C(=O)N1Cc1ccc(-c2ccc(OC(C)C)c3nn(C)cc23)cc1F [Compound 109, 6-(2-fluoro-4-(7-isopropoxy-2-methyl-2H-indazol-4-yl)benzyl)-6,7-dihydro-5H-pyrrolo[3,4-b]pyridin-5-one-7,7-d2]

— US20240228489A1, “POSITIVE ALLOSTERIC MODULATORS OF THE MUSCARINIC ACETYLCHOLINE RECEPTOR M1” (Vanderbilt University, priority 2021, published 2024)
